Values after ≈ are worked out from the molar mass of the structure shown. Active and inactive are the calls of the source. The calls are words filed in the database; no cut-off is given here.
What was measured:
[1] = tested on: Streptococcus mutans; assay: Antibacterial activity against Streptococcus mutans Ingbritt after 48 hrs by spectrophotometry; type: functional
[2] = tested on: Streptococcus sanguinis; assay: Antibacterial activity against Streptococcus sanguis after 48 hrs by spectrophotometry; type: functional
[3] = tested on: Porphyromonas gingivalis; assay: Antibacterial activity against Porphyromonas gingivalis after 48 hrs by spectrophotometry; type: functional
[4] = tested on: Prevotella intermedia; assay: Antibacterial activity against Prevotella intermedia after 48 hrs by spectrophotometry; type: functional, organism-based

SMILES	MIC [1]	MIC [2]	Activity [3]	Activity [4]	MIC [3]
CC1=C2c3c(C)cc(O)c4c(O[C@@H]5O[C@H](CO[C@@H]6OC[C@@H](O)[C@H](O)[C@H]6O)[C@@H](O)[C@H](O)[C@H]5O)ccc(c34)OC2(O)c2c(O[C@@H]3O[C@H](CO)[C@@H](O)[C@H](O)[C@H]3O)ccc(O)c2C1=O (stereo not given in full)	1 mg/L (≈ 1.18 µM)	1 mg/L (≈ 1.18 µM)	inactive	inactive	–
CC1=C2c3c(C)cc(O)c4c(O[C@@H]5O[C@H](CO[C@@H]6OC[C@@H](O)[C@H](O)[C@H]6O)[C@@H](O)[C@H](O)[C@H]5O)ccc(c34)OC2(O)c2c(O[C@@H]3O[C@H](CO[C@@H]4OC[C@@H](O)[C@H](O)[C@H]4O)[C@@H](O)[C@H](O)[C@H]3O)ccc(O)c2C1=O (stereo not given in full)	1 mg/L (≈ 1.02 µM)	1 mg/L (≈ 1.02 µM)	inactive	inactive	–
C[n+]1cc2c3c(ccc2c2ccc4cc5c(cc4c21)OCO5)OCO3 [SANGUINARIUM]	15 mg/L	–	–	–	15 mg/L

Reference: ChEMBL document CHEMBL1150910, “Binaphthalenone glycosides from African chewing sticks, Diospyros lycioides” (1998)
